What all share (format): physicochemical
Data set [1] is described as follows: Solubility in Fasted State Simulated Intestinal Fluid (FaSSIF). The settings on record: after 15 min, HPLC; for solubility in 30 ml FaSSIF, conc.: 30 ml FaSSIF pH 6.5, approx. 50 mg (as free acid); for solubility in 100 ml FaSSIF, conc.: 100 ml FaSSIF pH 6.5, approx. 50 mg (as free acid). The procedure: FaSSIF was prepared according to the literature (e.g. Marques M, Dissolution Technologies, May 2004). […] The pH value was adjusted to 6.5 using 1 N NaOH. The ready-to-use FaSSIF was prepared by dissolving 3.3 g sodium taurocholate in 500 ml blank FaSSIF. Then, 11.8 ml of a solution of 100 mg/ml lecithin in dichloromethane was added and the thereafter, the solvent dichloromethane was removed under vacuum at 40° C. Thereafter the clear solution was transferred into a graduated 2 l flask and made up to volume with blank FaSSIF.
Solubility studies were performed with Licofelone (free acid), Licofelone tromethamol salt (example 2) and Licofelone choline salt (example 1A). The test articles were placed in a beaker, FaSSIF and a magnetic stirring bar were added and the mixture was stirred using a magnetic stirrer. After 15 min, samples were withdrawn, filtered and the clear filtrate was analyzed by HPLC to determine the concentration of Licofelone.
The dissolution test was performed in 100 ml FaSSIF and 30 ml FaSSIF. The lower volume was selected in order to simulate the physiological ratio between drug and intestinal fluid volume.

Data set [2] can be described thus: Storage stability at elevated temperatures (sum of known and unknown impurities). As for the experimental part: The raw materials (a) Licofelone, (b) Licofelone choline salt (example 1A) and (c) Licofelone tromethamine salt (example 2) were stored in open containers at 40, 50, 60 and 70° C. as well as at 40° C. with 75% relative humidity. Samples were analyzed after storage periods of 4 and 8 weeks. A validated method was applied for quantification of the five known impurities as well as of unknown impurities.

The nature of data set [3]: Solubility in 2-pyrrolidone. The settings on record: 25° C., mixed for 30 min, Licofelone in supernatant by HPLC. The procedure: Approx. 500 mg Licofelone (free acid) or the corresponding salt (examples 1A and 2) were suspended in 1 ml 2-pyrrolidone and mixed for 30 min. The temperature was maintained at 25° C. After centrifugation the concentration of Licofelone in the supernatant was determined by HPLC with UV detection.

Where [4] appears, read: stored at elevated temperatures for several weeks.

≈ marks a conversion by molar mass, not a printed value. Counter-ions that a name gives are not always drawn.

Turning to `CC1(C)Cc2c(-c3ccccc3)c(-c3ccc(Cl)cc3)c(CC(=O)O)n2C1` [Licofelone (free acid), 6-(4-chlorophenyl)-2,2-dimethyl-7-phenyl-2,3-dihydro-1H-pyrrolizin-5-ylacetic acid, reference compound], in data set [1], the “solubility in 30 ml FaSSIF, conc.” value is reported as 0.007 mg/mL (≈ 18.4 µM) and the “solubility in 100 ml FaSSIF, conc.” value was 0.007 mg/mL (≈ 18.4 µM). Besides, in data set [2] (setting [4]), the stability on storage result is recorded as “undergoes degradation”. For the same molecule, in data set [3], the solubility worked out at 47 mg/mL (≈ 124000 µM).
With `CC1(C)Cc2c(-c3ccccc3)c(-c3ccc(Cl)cc3)c(CC(=O)O)n2C1` [Licofelone choline salt, 6-(4-chlorophenyl)-2,2-dimethyl-7-phenyl-2,3-dihydro-1H-pyrrolizin-5-ylacetic acid choline salt], in data set [1], the “solubility in 30 ml FaSSIF, conc.” value was 0.222 mg/mL and the “solubility in 100 ml FaSSIF, conc.” value is listed as 0.228 mg/mL. Also, in data set [2] (stored at moderately elevated temperatures for several weeks), the stability on storage result is “more stable than the free acid”. In addition, the solubility in data set [3] turned out to be 274 mg/mL.
As to `CC1(C)Cc2c(-c3ccccc3)c(-c3ccc(Cl)cc3)c(CC(=O)O)n2C1` [Licofelone tromethamine salt, 6-(4-chlorophenyl)-2,2-dimethyl-7-phenyl-2,3-dihydro-1H-pyrrolizin-5-ylacetic acid tromethamine salt], in data set [1], the “solubility in 30 ml FaSSIF, conc.” value is 0.149 mg/mL and the “solubility in 100 ml FaSSIF, conc.” value was 0.165 mg/mL. In addition, the stability on storage result in data set [2] (setting [4]) is “more stable than the free acid and the choline salt”. In data set [3], this molecule returned a solubility of 66 mg/mL.

Values taken from patent US8519155B2, “Choline and tromethamine salt of licofelone” (c-a-i-r biosciences GmbH, priority 2008, dated 2013).
